Assay results: patent US8236958B2, “Polymorphic forms of a GABAA agonist” (H. Lundbeck A/S, priority 2004, dated 2012)

How the values were obtained:
[1] = molecular target: GABAA receptors comprising α4 and δ subunits (Homo sapiens, UniProt O14764+P28472+P48169); settings: Brown et al, British J. Pharmacol., 136, 965-74 (2002); cited from earlier work
[2] = relative thermodynamic stability of crystalline forms; assay type: physicochemical; settings: comparison of form II with form I of the same hydration state
Description: (§1) (The anhydrate of form I reverts to the monohydrate at 25° C./70% RH, while the anhydrate of form II reverts to the monohydrate at 25° C./90% RH).

[3] = reversion of anhydrate to monohydrate under humidity; assay type: physicochemical; settings: 25° C.
Description: as §1

[4] = thermal decomposition studies; assay type: physicochemical; settings: based on thermal decomposition studies; monohydrate form II vs anhydrous form II

Chain of GABAA receptors comprising α4 and δ subunits (P48169 36-554): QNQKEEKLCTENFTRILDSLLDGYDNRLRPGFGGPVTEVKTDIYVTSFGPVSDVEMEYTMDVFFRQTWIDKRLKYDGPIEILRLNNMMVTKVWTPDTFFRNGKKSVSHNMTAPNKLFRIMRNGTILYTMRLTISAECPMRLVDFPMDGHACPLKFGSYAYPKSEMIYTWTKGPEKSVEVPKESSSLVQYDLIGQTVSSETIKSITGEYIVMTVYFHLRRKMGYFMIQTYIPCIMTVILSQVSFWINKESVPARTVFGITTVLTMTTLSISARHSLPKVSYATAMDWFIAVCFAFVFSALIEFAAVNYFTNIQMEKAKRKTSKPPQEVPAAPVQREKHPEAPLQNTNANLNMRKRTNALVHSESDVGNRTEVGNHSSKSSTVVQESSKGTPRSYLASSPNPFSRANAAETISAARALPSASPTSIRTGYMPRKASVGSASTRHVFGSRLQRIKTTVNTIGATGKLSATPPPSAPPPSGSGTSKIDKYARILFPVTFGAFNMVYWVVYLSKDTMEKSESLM
Chain of GABAA receptors comprising α4 and δ subunits (O14764 25-452): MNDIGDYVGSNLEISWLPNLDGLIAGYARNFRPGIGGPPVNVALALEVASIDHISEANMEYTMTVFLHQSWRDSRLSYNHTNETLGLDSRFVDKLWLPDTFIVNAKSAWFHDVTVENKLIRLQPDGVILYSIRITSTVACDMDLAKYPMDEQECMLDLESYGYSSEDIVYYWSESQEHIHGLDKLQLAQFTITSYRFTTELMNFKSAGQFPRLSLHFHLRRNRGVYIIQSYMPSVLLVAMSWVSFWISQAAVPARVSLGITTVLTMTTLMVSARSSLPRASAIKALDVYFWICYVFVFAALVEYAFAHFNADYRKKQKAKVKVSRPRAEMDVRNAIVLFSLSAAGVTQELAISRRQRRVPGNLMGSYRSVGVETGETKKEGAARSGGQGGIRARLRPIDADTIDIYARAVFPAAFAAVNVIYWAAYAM
Chain of GABAA receptors comprising α4 and δ subunits (P28472 26-473): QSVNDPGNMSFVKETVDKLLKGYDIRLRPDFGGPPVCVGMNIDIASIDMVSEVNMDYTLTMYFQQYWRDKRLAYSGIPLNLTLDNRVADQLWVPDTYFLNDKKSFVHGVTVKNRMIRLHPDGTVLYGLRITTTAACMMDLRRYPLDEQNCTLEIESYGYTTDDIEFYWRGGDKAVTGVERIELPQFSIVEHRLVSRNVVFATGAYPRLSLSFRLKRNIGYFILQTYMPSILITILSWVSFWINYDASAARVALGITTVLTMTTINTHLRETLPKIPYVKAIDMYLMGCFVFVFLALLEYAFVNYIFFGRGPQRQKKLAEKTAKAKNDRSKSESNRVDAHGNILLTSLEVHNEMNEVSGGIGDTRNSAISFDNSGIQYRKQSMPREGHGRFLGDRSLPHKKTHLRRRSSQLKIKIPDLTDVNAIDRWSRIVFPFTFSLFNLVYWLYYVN

Oc1noc2c1CCNC2 [gaboxadol, 4,5,6,7-tetrahydroisoxazolo[5,4-c]pyridin-3-ol]
agonist potency [1]: particularly potent agonist

Oc1noc2c1CCNC2 [anhydrate of form II, 4,5,6,7-tetrahydroisoxazolo[5,4-c]pyridin-3-ol]
thermodynamic stability relative to the other polymorph ([2]; listed as gaboxadol anhydrate of form II): more stable than the anhydrate of form I | relative humidity at which the anhydrate reverts to the monohydrate [3]: 90 % RH

Oc1noc2c1CCNC2 [anhydrate of form I, 4,5,6,7-tetrahydroisoxazolo[5,4-c]pyridin-3-ol]
relative humidity at which the anhydrate reverts to the monohydrate [3]: 70 % RH

Oc1noc2c1CCNC2 [Gaboxadol monohydrate of form II, 4,5,6,7-tetrahydroisoxazolo[5,4-c]pyridin-3-ol]
thermodynamic stability relative to the other polymorph [2]: thermodynamically more stable than the monohydrate of form I | thermal profile [4]: safer thermal profile than the anhydrous form II
